Results reported in patent publication US9868772B2 (INDIANA UNIVERSITY RESEARCH AND TECHNOLOGY CORPORATION, priority 2012, dated 2018).
pEC50: −log10 of the molar value. Numbered stars: 1 amine (or outer) side, 2 acyl side, 3 side chain; on linkers, the order of the positions; unused ones are H or OH. Square brackets hold non-standard residues; d marks the D form. Side chains are listed from the residue outwards. Peptide text beside a SMILES is read from it. * marks the point of attachment. γGlu = O=C(O)[C@H](CCC(=O)[*:2])N[*:1]; Desaminotyrosyl = O=C(CCc1ccc(O)cc1)*; Palmitoyl = CCCCCCCCCCCCCCCC(=O)*

What was measured:
Test in all cases: cAMP induction, firefly luciferase reporter assay in HEK293 cells co-transfected with receptor
Type in all cases: cell-based
Settings in all cases: Table 2, analogs of SEQ ID NO: 10
GIP receptor = target: T1, GIP receptor (Homo sapiens, UniProt P48546)
T1 construct: expressed in transfected cells; host or cells: HEK293
T1 sequence (P48546 22-466): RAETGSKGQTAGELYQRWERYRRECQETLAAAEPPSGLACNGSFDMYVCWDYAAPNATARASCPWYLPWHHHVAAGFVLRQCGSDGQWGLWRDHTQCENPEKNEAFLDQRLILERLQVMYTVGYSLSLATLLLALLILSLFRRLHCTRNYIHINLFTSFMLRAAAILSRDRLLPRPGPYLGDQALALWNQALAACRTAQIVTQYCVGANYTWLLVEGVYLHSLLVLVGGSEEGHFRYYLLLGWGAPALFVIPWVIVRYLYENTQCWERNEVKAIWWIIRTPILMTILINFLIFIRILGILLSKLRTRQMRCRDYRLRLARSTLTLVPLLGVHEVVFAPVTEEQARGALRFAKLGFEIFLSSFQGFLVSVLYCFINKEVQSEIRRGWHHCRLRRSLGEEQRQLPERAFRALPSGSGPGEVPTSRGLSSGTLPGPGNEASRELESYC
Protocol: (§1) The ability of glucagon analogs to induce cAMP was measured in a firefly luciferase-based reporter assay. […] At the end of the incubation 100 microliters of LucLite luminescence substrate reagent (Perkin-Elmer, Wellesley, Mass.) were added to each well. […] Effective 50% concentrations were calculated by using Origin software (OriginLab, Northampton, Mass.

GLP-1 receptor = target: T2, GLP-1 receptor (Homo sapiens, UniProt P43220)
T2 construct: expressed in transfected cells; host or cells: HEK293
T2 sequence (P43220 24-463): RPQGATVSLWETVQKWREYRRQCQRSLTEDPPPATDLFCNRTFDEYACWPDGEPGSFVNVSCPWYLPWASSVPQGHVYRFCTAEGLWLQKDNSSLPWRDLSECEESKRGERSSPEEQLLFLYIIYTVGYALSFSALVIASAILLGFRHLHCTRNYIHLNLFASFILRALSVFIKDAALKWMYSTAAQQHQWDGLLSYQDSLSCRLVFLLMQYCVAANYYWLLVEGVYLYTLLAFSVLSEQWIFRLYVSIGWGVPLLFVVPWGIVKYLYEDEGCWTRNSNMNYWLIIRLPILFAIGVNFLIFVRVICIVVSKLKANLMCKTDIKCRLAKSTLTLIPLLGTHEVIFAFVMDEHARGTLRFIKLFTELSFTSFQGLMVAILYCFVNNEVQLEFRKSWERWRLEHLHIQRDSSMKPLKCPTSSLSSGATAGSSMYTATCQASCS
Protocol: as §1

glucagon receptor = target: T3, glucagon receptor (Homo sapiens, UniProt P47871)
T3 construct: expressed in transfected cells; host or cells: HEK293
T3 sequence (P47871 26-477): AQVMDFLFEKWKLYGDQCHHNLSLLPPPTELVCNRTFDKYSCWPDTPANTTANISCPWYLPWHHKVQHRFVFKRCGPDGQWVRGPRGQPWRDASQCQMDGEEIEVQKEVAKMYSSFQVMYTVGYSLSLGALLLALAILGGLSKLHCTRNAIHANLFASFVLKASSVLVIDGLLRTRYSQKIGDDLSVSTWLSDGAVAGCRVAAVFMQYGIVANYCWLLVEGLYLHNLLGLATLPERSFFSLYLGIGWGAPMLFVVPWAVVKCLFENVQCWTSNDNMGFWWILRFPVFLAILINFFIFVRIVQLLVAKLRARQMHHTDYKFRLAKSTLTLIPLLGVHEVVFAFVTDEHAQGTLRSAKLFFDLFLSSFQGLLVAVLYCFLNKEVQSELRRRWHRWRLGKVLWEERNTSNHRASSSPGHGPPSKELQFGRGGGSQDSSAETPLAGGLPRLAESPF
Protocol: as §1

CCCCCCCCCCCCCCCC(=O)N[C@@H](CCC(=O)NCCCC[C@H](NC(=O)[C@H](CC(=O)O)NC(=O)[C@H](CO)NC(=O)[C@@H](NC(=O)[C@H](Cc1ccccc1)NC(=O)[C@@H](NC(=O)CNC(=O)[C@H](CCC(=O)O)NC(=O)[C@H](C)NC(=O)[C@@H](Cc1ccc(O)cc1)NC(C)=O)[C@@H](C)O)[C@@H](C)O)C(=O)N[C@@H](CO)C(=O)N[C@@H](CCCCN)C(=O)N[C@@H](Cc1ccc(O)cc1)C(=O)N[C@@H](CC(C)C)C(=O)N[C@@H](CC(=O)O)C(=O)N[C@@H](CCC(=O)O)C(=O)N[C@@H](CCCNC(=N)N)C(=O)N[C@@H](C)C(=O)N[C@@H](C)C(=O)N[C@@H](CCC(N)=O)C(=O)N[C@@H](CC(=O)O)C(=O)N[C@@H](Cc1ccccc1)C(=O)N[C@H](C(=O)N[C@@H](CCC(N)=O)C(=O)N[C@@H](Cc1c[nH]c2ccccc12)C(=O)N[C@@H](CC(C)C)C(=O)N[C@@H](CC(C)C)C(=O)N[C@@H](CCC(=O)O)C(=O)NCC(=O)NCC(=O)N1CCC[C@H]1C(=O)N[C@@H](CO)C(=O)N[C@@H](CO)C(=O)NCC(=O)N[C@@H](C)C(=O)N1CCC[C@H]1C(=O)N1CCC[C@H]1C(=O)N1CCC[C@H]1C(=O)N[C@@H](CO)C(N)=O)C(C)C)C(=O)O [compound 141]
pEC50 (GIP receptor): 11.70 | pEC50 (GLP-1 receptor): 11.22 | pEC50 (glucagon receptor): 9.38

CCCCCCCCCCCCCCCC(=O)N[C@@H](CCC(=O)N[C@@H](CCC(=O)NCCCC[C@H](NC(=O)[C@H](CO)NC(=O)[C@@H]1CCCN1C(=O)[C@@H]1CCCN1C(=O)[C@@H]1CCCN1C(=O)[C@H](C)NC(=O)CNC(=O)[C@H](CO)NC(=O)[C@H](CO)NC(=O)[C@@H]1CCCN1C(=O)CNC(=O)CNC(=O)[C@H](CCC(=O)O)NC(=O)[C@H](CC(C)C)NC(=O)[C@H](CC(C)C)NC(=O)[C@H](Cc1c[nH]c2ccccc12)NC(=O)[C@H](CCC(N)=O)NC(=O)[C@@H](NC(=O)[C@H](Cc1ccccc1)NC(=O)[C@H](CC(=O)O)NC(=O)[C@H](CCC(N)=O)NC(=O)[C@H](C)NC(=O)[C@H](C)NC(=O)[C@H](CCCNC(=N)N)NC(=O)[C@H](CCC(=O)O)NC(=O)[C@H](CC(=O)O)NC(=O)[C@H](CC(C)C)NC(=O)[C@H](Cc1ccc(O)cc1)NC(=O)[C@H](CCCCN)NC(=O)[C@H](CO)NC(=O)[C@H](Cc1ccc(O)cc1)NC(=O)[C@H](CC(=O)O)NC(=O)[C@H](CO)NC(=O)[C@@H](NC(=O)[C@H](Cc1ccccc1)NC(=O)[C@@H](NC(=O)CNC(=O)[C@H](CCC(N)=O)NC(=O)[C@H](C)NC(=O)CCc1ccc(O)cc1)[C@@H](C)O)[C@@H](C)O)C(C)C)C(=O)NCC(N)=O)C(=O)O)C(=O)O [compound 160] (Desaminotyrosyl-AQGTFTSDYSKYLDERAAQDFVQWLLEGGPSSGAPPPSK([γGlu-γGlu-Palmitoyl])G-NH2)
pEC50 (GIP receptor): 10.07 | pEC50 (GLP-1 receptor): 10.66 | pEC50 (glucagon receptor): 10.31

CCCCCCCCCCCCCCCC(=O)N[C@@H](CCC(=O)NCCCC[C@H](NC(=O)[C@H](CC(=O)O)NC(=O)[C@H](CO)NC(=O)[C@@H](NC(=O)[C@H](Cc1ccccc1)NC(=O)[C@@H](NC(=O)CNC(=O)[C@H](CC(C)C)NC(=O)[C@H](C)NC(=O)[C@@H](Cc1ccc(O)cc1)NC(C)=O)[C@@H](C)O)[C@@H](C)O)C(=O)N[C@@H](CO)C(=O)N[C@@H](CCCCN)C(=O)N[C@@H](Cc1ccc(O)cc1)C(=O)N[C@@H](CC(C)C)C(=O)N[C@@H](CC(=O)O)C(=O)N[C@@H](CCC(=O)O)C(=O)N[C@@H](CCCNC(=N)N)C(=O)N[C@@H](C)C(=O)N[C@@H](C)C(=O)N[C@@H](CCC(N)=O)C(=O)N[C@@H](CC(=O)O)C(=O)N[C@@H](Cc1ccccc1)C(=O)N[C@H](C(=O)N[C@@H](CCC(N)=O)C(=O)N[C@@H](Cc1c[nH]c2ccccc12)C(=O)N[C@@H](CC(C)C)C(=O)N[C@@H](CC(C)C)C(=O)N[C@@H](CCC(=O)O)C(=O)NCC(=O)NCC(=O)N1CCC[C@H]1C(=O)N[C@@H](CO)C(=O)N[C@@H](CO)C(=O)NCC(=O)N[C@@H](C)C(=O)N1CCC[C@H]1C(=O)N1CCC[C@H]1C(=O)N1CCC[C@H]1C(=O)N[C@@H](CO)C(N)=O)C(C)C)C(=O)O [compound 142] (Ac-[dY]ALGTFTSDK([γGlu-Palmitoyl])SKYLDERAAQDFVQWLLEGGPSSGAPPPS-NH2)
pEC50 (GIP receptor): 11.70 | pEC50 (GLP-1 receptor): 11.30 | pEC50 (glucagon receptor): 9.99
